Measurements: patent US12396949B2, “Technology for improving properties of lipid nanoparticles using lipids in which cis-unsaturated bonds are substituted with a silicon atom” (The Regents of the University of California, priority 2022, dated 2025)
Where “and” joins values, the source holds several entries; their conditions need not be identical. Identical values can stand only once.

What was measured:
[1] = Average zeta potential of liposomes made from cationic silyl lipids (Tables 1A, 1B); format: physicochemical; conditions: Table 1A; liposome formulations of the cationic silyl lipid only in Milli Q purified water
Source text: (§1) For colloidal dispersions, zeta potential is a useful measurement of the difference in electrokinetic potential between the dispersion medium and the stationary layer of fluid attached to the dispersed particle. The magnitude of the zeta potential indicates the degree of electrostatic repulsion between adjacent, similarly charged particles in a dispersion. A high zeta potential is an indicator of stability (resistance to aggregation). Both zeta potential and size can be determined using a zeta Potential Analyzer. Clogston J D et al., Methods Mol Biol. 2011; 697:63-70.
(§2) FIGS. 5A to 5C and TABLE 1A provide an illustration of such empirical determination: the effect of the length of the lipid tail, the end group, and the positioning of the silyl group. In this illustration, other properties of the lipid structure and liposome composition were kept constant. The liposome formulations just contained the cationic silyl lipids indicated, and Milli Q™ purified water.
(§3) FIGS. 7A to 7C and TABLE 1B provide another illustration of how structure of the silyl lipid can affect properties of nanoparticles.
(§4) Structural features such as tail length, positioning of the silicon group (n1, n2), and branching (as in 8,Si, (8)3-DOTMA) can influence liposome properties.

[2] = Average size of liposomes made from cationic silyl lipids (Tables 1A, 1B); format: physicochemical; conditions: Table 1A; liposome formulations of the cationic silyl lipid only in Milli Q purified water
Source text: as §1, §2, §3, §4

Row | Structure (SMILES) | Avg. zeta Potential [1] | Avg. Size [2] [nm]
1 | C[N+](C)(C)CC(COC(=O)CCCC[Si](C)(C)c1ccccc1)OC(=O)CCCC[Si](C)(C)c1ccccc1 (centres unmarked) [QP5SiPh] | 62 mV | 80
2 | CCCCCCCCC[Si](C)(C)CCCCCCC(=O)OCC(C[N+](C)(C)C)OC(=O)CCCCCC[Si](C)(C)CCCCCCCCC (centres unmarked) [QP7Si9] | 74 mV | 59
3 | CCCC[Si](C)(C)CCCCCCCC(=O)OCC(C[N+](C)(C)C)OC(=O)CCCCCCC[Si](C)(C)CCCC (centres unmarked) [QP8Si4] | 33 mV and 44 mV | 24
4 | CCCCCC[Si](C)(C)CCCCCCCC(=O)OCC(C[N+](C)(C)C)OC(=O)CCCCCCC[Si](C)(C)CCCCCC (centres unmarked) [QP8Si6] | 62 mV | 38
5 | CCCCCCCC[Si](C)(C)CCCCCCCC(=O)OCC(C[N+](C)(C)C)OC(=O)CCCCCCC[Si](C)(C)CCCCCCCC (centres unmarked) [QP8Si8] | 67 mV | 38
6 | C[N+](C)(C)CC(COC(=O)CCCCCCC[Si](C)(C)C1CCCCC1)OC(=O)CCCCCCC[Si](C)(C)C1CCCCC1 (centres unmarked) [QP8SiCy] | 57 mV and 71 mV | 29
7 | C[N+](C)(C)CC(COC(=O)CCCCCCC[Si](C)(C)c1ccccc1)OC(=O)CCCCCCC[Si](C)(C)c1ccccc1 (centres unmarked) [QP8SiPh] | 59 mV and 73 mV | 21
